Like-named read-outs stand apart in the source and are kept apart here. Starred links: 1 amine or outer side, 2 acyl side, 3 side chain; linkers in the order of their positions; H or OH if unused. Positions of bridges follow the written chain, without caps; N, C: chain ends. Non-standard residues stand in square brackets, D forms with d. Residues, ends and D or L forms follow the SMILES beside them. *: point of attachment. Bip(4'-NHCO-C6H4-3-CH2COOH) = N[C@@H](Cc1ccc(-c2ccc(NC(=O)c3cccc(CC(=O)O)c3)cc2)cc1)C(=O)O; dArg(ω-(2S)-2,3-diOHpropyl) = N=C(NCCC[C@@H](N)C(=O)O)NC[C@H](O)CO; Bip(4'-NH) = O=C([C@H](Cc1ccc(-c2ccc(N[*:3])cc2)cc1)N[*:1])[*:2]; Indazole3carbonyl(1-CH2COOH) = O=C(O)Cn1nc(C(=O)*)c2ccccc21; Bip(4'-COOH) = N[C@@H](Cc1ccc(-c2ccc(C(=O)O)cc2)cc1)C(=O)O; Bip(4'-NHAc) = CC(=O)Nc1ccc(-c2ccc(C[C@H](N)C(=O)O)cc2)cc1; X4 = N=C(NCCCc1cccc(N)c1)NCCC[C@@H](N[*:1])C(=O)[*:2]; dArg(ω-Bn) = N=C(NCCC[C@@H](N)C(=O)O)NCc1ccccc1; Ala(morpholin-4-yl) = N[C@@H](CN1CCOCC1)C(=O)O; Benzoyl(3-OCH2COOH) = O=C(O)COc1cccc(C(=O)*)c1; Phe(4-CH2NH2) = NCc1ccc(C[C@H](N)C(=O)O)cc1; Bip = N[C@@H](Cc1ccc(-c2ccccc2)cc1)C(=O)O; Phe(4-F) = N[C@@H](Cc1ccc(F)cc1)C(=O)O; Phe(2-F) = N[C@@H](Cc1ccccc1F)C(=O)O; X48 = CC(C)(O)Cn1nc(C(=O)*)c2ccccc21; Val(3-OH) = CC(C)(O)[C@H](N)C(=O)O; hArg = N=C(N)NCCCC[C@H](N)C(=O)O; 2Pal = N[C@@H](Cc1ccccn1)C(=O)O; 3Pal = N[C@@H](Cc1cccnc1)C(=O)O; 2Thi = N[C@@H](Cc1cccs1)C(=O)O; Cha = N[C@@H](CC1CCCCC1)C(=O)O; Tle = CC(C)(C)[C@H](N)C(=O)O; Sar = CNCC(=O)O
Target: TNFα (Homo sapiens, UniProt P01375)
Assay: TNF-Induced HEK-Blue Assay
Assay type: cell-based
[1] = HEK-Blue-CD40L cells, NF-kB-driven secreted alkaline phosphatase reporter, TNFα 0.5 ng/ml, 18 h, read-out: TNF induced HEK-Blue assay IC50 value

Sequence of TNFα (P01375 77-233 limits assumed): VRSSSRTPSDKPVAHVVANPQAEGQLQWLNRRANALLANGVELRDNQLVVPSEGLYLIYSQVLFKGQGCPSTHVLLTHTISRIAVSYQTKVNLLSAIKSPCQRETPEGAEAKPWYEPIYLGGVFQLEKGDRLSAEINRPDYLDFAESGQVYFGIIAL

Row | Compound | IC50 [1] [nM] | IC50 [nM]
1 | CC(C)C[C@@H]1NC(=O)[C@H](CCCNC(=N)N)NC(=O)[C@H](C(C)C)NC(=O)[C@@H]2CCCN2C(=O)[C@H](C(C)C)NC(=O)[C@@H](CCCNC(=N)N)NC(=O)[C@H](CC(=O)O)NC(=O)[C@@H]2CCCN2C(=O)CN(C)C(=O)[C@H](Cc2ccc(-c3ccc(NC(=O)c4nn(CC(C)(C)O)c5ccccc45)cc3)cc2)NC(=O)[C@H](Cc2ccc(-c3ccccc3)cc2)NC(=O)[C@H](CN2CCOCC2)NC(=O)CSC[C@@H](C(=O)NCC(N)=O)NC1=O [Example 355] ({CH2CO}-[Ala(morpholin-4-yl)][Bip][Bip(4'-NH)](X48)[Sar]PD[dR]VPVRLCG-NH2; thioether N-13) |  | < 50
2 | CC(C)C[C@@H]1NC(=O)[C@H](CCCNC(=N)N)NC(=O)[C@H](C(C)C)NC(=O)[C@@H]2CCCN2C(=O)[C@H](Cc2cccnc2)NC(=O)[C@H](CCCNC(=N)N)NC(=O)[C@H](CC(=O)O)NC(=O)[C@@H]2CCCN2C(=O)CN(C)C(=O)[C@H](Cc2ccc(-c3ccccc3)cc2)NC(=O)[C@H](Cc2ccc(-c3ccccc3)cc2)NC(=O)[C@H](Cc2ccccc2)NC(=O)CSC[C@@H](C(=O)NCC(N)=O)NC1=O [Example 26] ({CH2CO}-F[Bip][Bip][Sar]PDR[3Pal]PVRLCG-NH2; thioether N-13) | 200 to 2000 | 
3 | CC(C)C[C@@H]1NC(=O)[C@H](Cc2ccc(CN)cc2)NC(=O)[C@H](C(C)C)NC(=O)[C@@H]2CCCN2C(=O)[C@H](C(C)C)NC(=O)[C@H](CCCNC(=N)N)NC(=O)[C@H](CC(=O)O)NC(=O)[C@@H]2CCCN2C(=O)CN(C)C(=O)[C@H](Cc2ccc(-c3ccccc3)cc2)NC(=O)[C@H](Cc2ccc(-c3ccccc3)cc2)NC(=O)[C@H](Cc2ccccc2)NC(=O)CSC[C@@H](C(=O)NCC(N)=O)NC1=O [Example 36] ({CH2CO}-F[Bip][Bip][Sar]PDRVPV[Phe(4-CH2NH2)]LCG-NH2; thioether N-13) | 200 to 2000 | 
4 | CC(C)C[C@@H]1NC(=O)[C@H](CCCNC(=N)N)NC(=O)[C@H](C(C)C)NC(=O)[C@@H]2CCCN2C(=O)[C@H](C(C)C)NC(=O)[C@@H](CCCNC(=N)NCCCc2cccc(N)c2)NC(=O)[C@H](CC(=O)O)NC(=O)[C@@H]2CCCN2C(=O)CN(C)C(=O)[C@H](Cc2ccc(-c3ccc(NC(=O)c4nn(CC(=O)O)c5ccccc45)cc3)cc2)NC(=O)[C@H](Cc2ccc(-c3ccccc3)cc2)NC(=O)[C@H](CN2CCOCC2)NC(=O)CSC[C@@H](C(=O)NCC(N)=O)NC1=O [Example 393] ({CH2CO}-[Ala(morpholin-4-yl)][Bip][Bip(4'-NH)](Indazole3carbonyl(1-CH2COOH))[Sar]PD[X4]VPVRLCG-NH2; thioether N-13) |  | < 50
5 | CC(C)C[C@@H]1NC(=O)[C@H](CCCNC(=N)N)NC(=O)[C@H](C(C)C)NC(=O)[C@@H]2CCCN2C(=O)[C@H](Cc2ccccc2F)NC(=O)[C@H](CCCNC(=N)N)NC(=O)[C@H](CC(=O)O)NC(=O)[C@@H]2CCCN2C(=O)CN(C)C(=O)[C@H](Cc2ccc(-c3ccccc3)cc2)NC(=O)[C@H](Cc2ccc(-c3ccccc3)cc2)NC(=O)[C@H](C(C)(C)O)NC(=O)CSC[C@@H](C(=O)NCC(N)=O)NC1=O [Example 59] ({CH2CO}-[Val(3-OH)][Bip][Bip][Sar]PDR[Phe(2-F)]PVRLCG-NH2; thioether N-13) | 200 to 2000 | 
6 | CC(C)C[C@@H]1NC(=O)[C@H](Cc2ccc(O)cc2)NC(=O)[C@H](C(C)C)NC(=O)[C@@H]2CCCN2C(=O)[C@H](C(C)C)NC(=O)[C@@H](CCCNC(=N)N)NC(=O)[C@H](CC(=O)O)NC(=O)[C@H](Cc2ccccn2)NC(=O)CN(C)C(=O)[C@H](Cc2ccc(-c3ccccc3)cc2)NC(=O)[C@H](Cc2ccc(-c3ccccc3)cc2)NC(=O)[C@H](CN2CCOCC2)NC(=O)CSC[C@@H](C(=O)NCC(N)=O)NC1=O [Example 144] ({CH2CO}-[Ala(morpholin-4-yl)][Bip][Bip][Sar][2Pal]D[dR]VPVYLCG-NH2; thioether N-13) | < 50 | 
7 | CC(C)C[C@@H]1NC(=O)[C@H](CCCNC(=N)N)NC(=O)[C@H](C(C)C)NC(=O)[C@@H]2CCCN2C(=O)[C@H](Cc2ccc(F)cc2)NC(=O)[C@H](CCCNC(=N)N)NC(=O)[C@H](CC(=O)O)NC(=O)[C@@H]2CCCN2C(=O)CN(C)C(=O)[C@H](Cc2ccc(-c3ccccc3)cc2)NC(=O)[C@H](Cc2ccc(-c3ccccc3)cc2)NC(=O)[C@H](CN2CCOCC2)NC(=O)CSC[C@@H](C(=O)NCC(N)=O)NC1=O [Example 52] ({CH2CO}-[Ala(morpholin-4-yl)][Bip][Bip][Sar]PDR[Phe(4-F)]PVRLCG-NH2; thioether N-13) | 200 to 2000 | 

Now from value to compound, other results behind:

Row | IC50 [1] [nM] | Compound | IC50 [nM]
8 | < 50 | CC[C@H](C)[C@@H]1NC(=O)[C@@H](CCCNC(=N)N)NC(=O)[C@H](CC(=O)O)NC(=O)[C@H](Cc2cnc[nH]2)NC(=O)CN(C)C(=O)[C@H](Cc2ccc(-c3ccc(NC(=O)c4cccc(CC(=O)O)c4)cc3)cc2)NC(=O)[C@H](Cc2ccc(-c3ccc(C(=O)O)cc3)cc2)NC(=O)[C@H](C(C)(C)C)NC(=O)CSC[C@@H](C(=O)NCC(N)=O)NC(=O)[C@H](CC(C)C)NC(=O)[C@H](Cc2cnc[nH]2)NC(=O)[C@H](C(C)C)NC(=O)[C@@H]2CCCN2C1=O [Example 482] ({CH2CO}-[Tle][Bip(4'-COOH)][Bip(4'-NHCO-C6H4-3-CH2COOH)][Sar]HD[dR]IPVHLCG-NH2; thioether N-13) | 
9 | 50 to 200 | CC[C@H](C)[C@@H]1NC(=O)[C@@H](CCCNC(=N)NCc2ccccc2)NC(=O)[C@H](CC(=O)O)NC(=O)[C@H](Cc2cnc[nH]2)NC(=O)CN(C)C(=O)[C@H](Cc2ccc(-c3ccc(NC(=O)c4cccc(OCC(=O)O)c4)cc3)cc2)NC(=O)[C@H](Cc2ccc(-c3ccc(C(=O)O)cc3)cc2)NC(=O)[C@H](CC2CCCCC2)NC(=O)CSC[C@@H](C(=O)NCC(N)=O)NC(=O)[C@H](CC(C)C)NC(=O)[C@H](Cc2cnc[nH]2)NC(=O)[C@H](C(C)C)NC(=O)[C@@H]2CCCN2C1=O [Example 585] ({CH2CO}-[Cha][Bip(4'-COOH)][Bip(4'-NH)](Benzoyl(3-OCH2COOH))[Sar]HD[dArg(ω-Bn)]IPVHLCG-NH2; thioether N-13) | 
10 | 50 to 200 | CC(C)C[C@@H]1NC(=O)[C@H](CCCNC(=N)N)NC(=O)[C@H](C(C)C)NC(=O)[C@@H]2CCCN2C(=O)[C@H](C(C)C)NC(=O)[C@@H](CCCNC(=N)NC[C@H](O)CO)NC(=O)[C@H](CC(=O)O)NC(=O)[C@@H]2CCCN2C(=O)CN(C)C(=O)[C@H](Cc2ccc(-c3ccc(NC(=O)c4cccc(CC(=O)O)c4)cc3)cc2)NC(=O)[C@H](Cc2ccc(-c3ccccc3)cc2)NC(=O)[C@H](CN2CCOCC2)NC(=O)CSC[C@@H](C(=O)NCC(N)=O)NC1=O [Example 537] ({CH2CO}-[Ala(morpholin-4-yl)][Bip][Bip(4'-NHCO-C6H4-3-CH2COOH)][Sar]PD[dArg(ω-(2S)-2,3-diOHpropyl)]VPVRLCG-NH2; thioether N-13) | 
11 | 50 to 200 | CC(=O)Nc1ccc(-c2ccc(C[C@@H]3NC(=O)[C@H](Cc4ccc(-c5ccc(C(=O)O)cc5)cc4)NC(=O)[C@H](CN4CCOCC4)NC(=O)CSC[C@@H](C(=O)NCC(N)=O)NC(=O)[C@H](CC(C)C)NC(=O)[C@H](CCCNC(=N)N)NC(=O)[C@H](C(C)C)NC(=O)[C@@H]4CCCN4C(=O)[C@H](CC(N)=O)NC(=O)[C@@H](CCCNC(=N)N)NC(=O)[C@H](CC(=O)O)NC(=O)[C@H](Cc4ccccn4)NC(=O)CN(C)C3=O)cc2)cc1 [Example 226] ({CH2CO}-[Ala(morpholin-4-yl)][Bip(4'-COOH)][Bip(4'-NHAc)][Sar][2Pal]D[dR]NPVRLCG-NH2; thioether N-13) | 
12 | < 50 | CC(=O)Nc1ccc(-c2ccc(C[C@@H]3NC(=O)[C@H](Cc4ccc(-c5ccccc5)cc4)NC(=O)[C@H](CN4CCOCC4)NC(=O)CSC[C@@H](C(=O)NCC(N)=O)NC(=O)[C@H](CC(C)C)NC(=O)[C@H](CCCNC(=N)N)NC(=O)[C@H](C(C)C)NC(=O)[C@@H]4CCCN4C(=O)[C@H](C(C)C)NC(=O)[C@@H](CCCNC(=N)N)NC(=O)[C@H](CC(=O)O)NC(=O)[C@H](Cc4ccccn4)NC(=O)CN(C)C3=O)cc2)cc1 [Example 203] ({CH2CO}-[Ala(morpholin-4-yl)][Bip][Bip(4'-NHAc)][Sar][2Pal]D[dR]VPVRLCG-NH2; thioether N-13) | 
13 | 50 to 200 | CC(C)C[C@@H]1NC(=O)[C@H](CCCNC(=N)N)NC(=O)[C@H](C(C)C)NC(=O)[C@@H]2CCCN2C(=O)[C@H](C(C)C)NC(=O)[C@@H](CCCNC(=N)N)NC(=O)[C@H](CC(=O)O)NC(=O)[C@H](Cc2cnc[nH]2)NC(=O)CN(C)C(=O)[C@H](Cc2ccc(-c3ccccc3)cc2)NC(=O)[C@H](Cc2ccc(-c3ccccc3)cc2)NC(=O)[C@H](CN2CCOCC2)NC(=O)CSC[C@@H](C(=O)NCC(N)=O)NC1=O [Example 229] ({CH2CO}-[Ala(morpholin-4-yl)][Bip][Bip][Sar]HD[dR]VPVRLCG-NH2; thioether N-13) | 
14 | < 50 | CC(C)C[C@@H]1NC(=O)[C@H](CCCCNC(=N)N)NC(=O)[C@H](C(C)C)NC(=O)[C@@H]2CCCN2C(=O)[C@H](C(C)C)NC(=O)[C@@H](CCCNC(=N)N)NC(=O)[C@H](CC(=O)O)NC(=O)[C@H](Cc2ccc(O)cc2)NC(=O)CN(C)C(=O)[C@H](Cc2ccc(-c3ccccc3)cc2)NC(=O)[C@H](Cc2ccc(-c3ccccc3)cc2)NC(=O)[C@H](CN2CCOCC2)NC(=O)CSC[C@@H](C(=O)NCC(N)=O)NC1=O [Example 159] ({CH2CO}-[Ala(morpholin-4-yl)][Bip][Bip][Sar]YD[dR]VPV[hArg]LCG-NH2; thioether N-13) | 
15 | 200 to 2000 | CC(=O)Nc1ccc(-c2ccc(C[C@@H]3NC(=O)[C@H](Cc4ccc(-c5ccccc5)cc4)NC(=O)[C@H](CC4CCCCC4)NC(=O)CSC[C@@H](C(=O)NCC(N)=O)NC(=O)[C@H](CC(C)C)NC(=O)[C@H](Cc4cccs4)NC(=O)[C@H](C(C)C)NC(=O)[C@@H]4CCCN4C(=O)[C@H](C(C)C)NC(=O)[C@@H](CCCNC(=N)N)NC(=O)[C@H](CC(=O)O)NC(=O)[C@H](Cc4ccccn4)NC(=O)CN(C)C3=O)cc2)cc1 [Example 235] ({CH2CO}-[Cha][Bip][Bip(4'-NHAc)][Sar][2Pal]D[dR]VPV[2Thi]LCG-NH2; thioether N-13) | 
16 | 50 to 200 | CC(C)C[C@@H]1NC(=O)[C@H](Cc2ccc(CN)cc2)NC(=O)[C@H](C(C)C)NC(=O)[C@@H]2CCCN2C(=O)[C@H](C(C)C)NC(=O)[C@@H](CCCNC(=N)N)NC(=O)[C@H](CC(=O)O)NC(=O)[C@H](Cc2ccc(O)cc2)NC(=O)CN(C)C(=O)[C@H](Cc2ccc(-c3ccccc3)cc2)NC(=O)[C@H](Cc2ccc(-c3ccccc3)cc2)NC(=O)[C@H](CN2CCOCC2)NC(=O)CSC[C@@H](C(=O)NCC(N)=O)NC1=O [Example 150] ({CH2CO}-[Ala(morpholin-4-yl)][Bip][Bip][Sar]YD[dR]VPV[Phe(4-CH2NH2)]LCG-NH2; thioether N-13) | 
